Test results: patent US8518946B2, “Salts of (R)-7-[3-amino-4-(2,4,5-trifluorophenyl)butanoyl]-3-trifluoromethyl-5,6,7,8-tetrahydroimidazo[1,5-a] pyrazine-1-carboxylic acid, preparation method and medical use thereof” (Jiangsu Hengrui Medicine Co., Ltd., priority 2009, dated 2013)
Read-outs that look alike come from different tables or passages of the source.

Columns and labels:
[1] = Solubility experiment in four systems; format: physicochemical
Method: According to the conventional solubility measurement, the solubility of the test samples were determined in four different systems: phosphate buffer solution (PBS, pH=7.4), methanol, 0.1% hydrochloric acid and water.

DPP-IV = molecular target: T1, DPP-IV (Homo sapiens, UniProt P27487); test: DPP-IV inhibition, Promega DPPIV-Glo Protease Assay; format: biochemical
T1 construct: purchased Calbiochem 317630
Method: (§1) The compounds of the present invention were tested to determine their DPP-IV, DPP-VIII, DPP-IX inhibition activity according to the following methods. The half inhibition concentrations IC50 (the concentration of the test compound showing 50% inhibition to the enzyme activity) of each compound were determined by reaction test and calculation of the mixture of fixed amounts of enzyme and substrate with several different concentrations of the test compounds.
(§2) The compounds of the present invention were tested to determine the DPP-IV, DPP-VIII, DPP-IX inhibition activity in the following tests using Promega DPPIV-Glo™ Protease Assay (Cat No. G8350/G8351) Kit, wherein:
a. DPP-IV enzyme bought from Calbiochem, Catalog no. 317630;
(§3) The preparation procedure of the conventional reagent such as DPPIV-Glo buffer, luciferin reagents needed in the test and the detail operation of the test can refer to the specifications of the kits. The assay was carried out as following steps:
(§4) The tested compounds were dissolved in DMSO to prepare a series of different concentrations of the test compound solution. DPPIV-Glo buffer and the freezing luciferin detection reagent were equilibrated to room temperature. The luciferin detection reagent was dissolved in moderate buffer in a brown flask to form a solution. Then DPP-IV-Glo. was dissolved in ultrapure water to give the appropriate concentration. The substrate solution and the luciferin detection reagent solution were mixed sufficiently in an appropriate ratio (the ratio of the invention is 1:49), and the mixture was layed at room temperature for 30-60 minutes. Tris buffer (2 mM, pH 8.0), the test compounds and DPP-IV (DPP-VIII or DPP-IX) were mixed and then transferred to a 96-well plate. Each test contains double-well of three-well control. The same volume of DMSO was added to the negative control and blank control. Then the 96-well plate was added with mixed solution of luciferin detection reagent and substrate to initiate the reaction. The 96-wells plate was incubated at room temperature on a plate shaker for 40 minutes after sealed. The strength of the fluorescent signal in each well was determined by microplate reader and the inhibition rate to the enzyme of the compound at this concentration was calculated by the formula as following: inhibitory rate: IR=[1−(S−B)/(N−B)]*100% • S: value of the sample • B: value of the blank control • N: value of the negative control
(§5) IC50 of the test compounds can be calculated by the inhibition rate at different concentration.

DPP-VIII = molecular target: T2, DPP-VIII (Homo sapiens, UniProt Q6V1X1); test: DPP-VIII inhibition, Promega DPPIV-Glo Protease Assay; format: biochemical; conditions: read-out: IC50 DPP8
T2 construct: purchased Bioscience 80080
Method: as §1, §2
b. DPP-VIII enzyme bought from Bioscience, Catalog no. 80080;
as §3, §4, §5

DPP-IX = molecular target: T3, DPP-IX (Homo sapiens, UniProt Q86TI2); test: DPP-IX inhibition, Promega DPPIV-Glo Protease Assay; format: biochemical; conditions: read-out: IC50 DPP9
T3 construct: purchased Bioscience 80090
Method: as §1, §2
c. DPP-IX enzyme bought from Bioscience, Catalog no. 80090.
as §3, §4, §5

[2] = Pharmacokinetics assay in rats (LC/MS/MS plasma concentration); format: in vivo, SD rats; conditions: for half-life / AUC(0-t) / CL/F / Cmax / MRT / Tmax / Vd/F: intragastric 3.0 mg/kg; for MRT: read-out: MRT; for Tmax: read-out: Tmax; for Vd/F: read-out: Vz/F; for F: intragastric 3.0 mg/kg (as free base), absolute bioavailability from AUC0-t vs vein injection
Description: The compound of Example 3 was administrated intragastrically or tail vein injection to rats and the compounds of Example 1-4, Example 9 and Example 11-12 were administrated intragastrically to determine the drug concentration in plasma at different time points by LC/MS/MS measurement. The pharmacokinetics of the compounds of the present invention was studied and evaluated in rats. And the oral absolute bioavailability was investigated.
Compounds of Example 1-4, Example 9 and Example 11-12.
[…] healthy adult SD rats, male and female in half, were purchased from SINO-BRITSH SIPPR/BK LAB.ANIMAL LTD., CO, License number: SCXK (Shanghai) 2008-0016.
Vein injection group: the proper weighed test compound was dissolved in 0.5 mL of DMSO by ultrasound and then diluted with normal saline to 15 mL to form a 0.3 mg/mL solution.
Intragastrically administered group: the proper weighed test compound was dissolved in 0.5% CMC-Na by ultrasound to form a 0.3 mg/mL of suspension.
32 healthy adult SD rats, male and female in half, were divided into 8 groups so that each group consisted 4 rats. After an overnight fast, the rats were tail vein injected of the compound of Example 3 and intragastrically administered the compound of Example 3 and the salt thereof, at a dose of 3.0 mg/kg (calculated as the free base form) and a volume of 10 mL/kg.
Blood samples (0.2 mL) of the rats in vein injection group were taken from eye socket at pre administration and at 2, 15, 30 minutes and 1.0, 2.0, 4.0, 6.0, 8.0, 12.0, 24.0 hours post administration, which were stored in heparinized tubes and centrifuged for 10 minutes at 3,500 rpm. The plasma samples were stored at −20° C. until analysis. The rats were fed 2 hours after administration.
Blood samples of the rats in intragastrically administered group were taken at pre administration and at 0.5, 1.0, 2.0, 3.0, 4.0, 6.0, 8.0, 12.0, 24.0 hours post administration. The samples were treated with the same method as mentioned above.
50 μL of internal standard solution and 150 μL of methanol were added to 50 μL of rat plasma obtained at various time points after administration. Then the mixture was mixed for 3 minutes using a vortexer and centrifuged for 10 minutes at 13,500 rpm. 10 μL of the supernatant was analyzed by LC/MS/MS.
The compartmental model of pharmacokinetics was fitted for the test compounds and the major pharmacokinetic parameters were calculated by DAS 2.0 software in which Cmax and tmax were the actually measured values. The absolute bioavailability was calculated by AUC0-t taken from post administration and vein injection.

normal ICR mice = test: Hypoglycemic effect, oral glucose tolerance in normal ICR mice; format: in vivo; conditions: 10 mg/kg by gavage, glucose 4 g/kg 15 minutes after administration
Method: To observe the effects on oral glucose tolerance of the compounds of Example 1-4 and Example 8-12 in normal ICR mice (SINO-BRITSH SIPPR/BK LAB.ANIMAL LTD., CO), the hypoglycemic effects in vivo have been evaluated using blood-glucose meter to measure and analyze the sugar content of the samples at different time points during 2 hours. The samples were taken from the mouse's tail.
The administration dose was 10 mg/kg, and the blank was administered with water. Both groups contained 5% DMSO.
The mice were administered by gavage. 4 g/kg of 10% glucose solution was administered (0.8 mL to each mice) 15 minutes after administration.
The mice were administered according to above dose (the blank group was administrated with 5% DMSO aqueous solution) and the blood sugar value was measured (−15 minutes).
15 minutes after administration, the mice were administered of 4 g/kg of 20% glucose solution and the values of blood sugar were tested by Roche ACCU-CHEK at 0, 15, 30, 45, 60, 120 minutes.

[3] = 0.1% hydrochloric acid, simulated gastric fluid, 0.1% hydrochloric acid, read-out: Solubility Value, 0.1% HCl
[4] = methanol, organic solvent or mixture, methanol, read-out: Solubility Value, methanol
[5] = phosphate buffer solution (PBS), pH 7.4, aqueous buffer, PBS pH 7.4, read-out: Solubility Value, PBS (pH 7.4)
[6] = water, read-out: Solubility Value, water
[7] = both sexes, SD, rat, plasma, po, 3 mg/kg
[8] = both sexes, SD, rat, plasma, po, 3 mg/kg, read-out: AUC0-t
[9] = both sexes, SD, rat, plasma, po, 3 mg/kg, read-out: CL/F (converted)
[10] = both sexes, SD, rat, plasma, po, 3 mg/kg, read-out: Cmax

T1 sequence (P27487 whole entry): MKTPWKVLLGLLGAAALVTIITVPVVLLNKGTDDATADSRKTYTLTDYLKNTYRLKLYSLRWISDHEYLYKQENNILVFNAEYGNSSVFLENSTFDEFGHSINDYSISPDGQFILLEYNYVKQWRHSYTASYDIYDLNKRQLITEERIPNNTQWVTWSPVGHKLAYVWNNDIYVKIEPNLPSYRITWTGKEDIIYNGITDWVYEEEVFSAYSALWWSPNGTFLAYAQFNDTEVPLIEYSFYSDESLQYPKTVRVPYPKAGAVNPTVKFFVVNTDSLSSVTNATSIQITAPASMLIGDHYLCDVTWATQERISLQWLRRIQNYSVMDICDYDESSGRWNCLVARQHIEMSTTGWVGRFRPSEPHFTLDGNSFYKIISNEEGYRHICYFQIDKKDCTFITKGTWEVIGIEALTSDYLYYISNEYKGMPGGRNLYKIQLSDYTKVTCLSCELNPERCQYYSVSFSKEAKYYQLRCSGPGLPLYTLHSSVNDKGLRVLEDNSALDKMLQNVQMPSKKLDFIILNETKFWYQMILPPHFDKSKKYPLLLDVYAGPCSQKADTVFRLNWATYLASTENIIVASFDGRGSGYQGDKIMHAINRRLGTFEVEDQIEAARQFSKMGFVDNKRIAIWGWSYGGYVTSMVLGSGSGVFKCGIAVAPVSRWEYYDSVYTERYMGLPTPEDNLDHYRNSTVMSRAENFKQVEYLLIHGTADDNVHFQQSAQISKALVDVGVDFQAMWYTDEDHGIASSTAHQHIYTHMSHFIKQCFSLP
T3 sequence (Q86TI2 whole entry): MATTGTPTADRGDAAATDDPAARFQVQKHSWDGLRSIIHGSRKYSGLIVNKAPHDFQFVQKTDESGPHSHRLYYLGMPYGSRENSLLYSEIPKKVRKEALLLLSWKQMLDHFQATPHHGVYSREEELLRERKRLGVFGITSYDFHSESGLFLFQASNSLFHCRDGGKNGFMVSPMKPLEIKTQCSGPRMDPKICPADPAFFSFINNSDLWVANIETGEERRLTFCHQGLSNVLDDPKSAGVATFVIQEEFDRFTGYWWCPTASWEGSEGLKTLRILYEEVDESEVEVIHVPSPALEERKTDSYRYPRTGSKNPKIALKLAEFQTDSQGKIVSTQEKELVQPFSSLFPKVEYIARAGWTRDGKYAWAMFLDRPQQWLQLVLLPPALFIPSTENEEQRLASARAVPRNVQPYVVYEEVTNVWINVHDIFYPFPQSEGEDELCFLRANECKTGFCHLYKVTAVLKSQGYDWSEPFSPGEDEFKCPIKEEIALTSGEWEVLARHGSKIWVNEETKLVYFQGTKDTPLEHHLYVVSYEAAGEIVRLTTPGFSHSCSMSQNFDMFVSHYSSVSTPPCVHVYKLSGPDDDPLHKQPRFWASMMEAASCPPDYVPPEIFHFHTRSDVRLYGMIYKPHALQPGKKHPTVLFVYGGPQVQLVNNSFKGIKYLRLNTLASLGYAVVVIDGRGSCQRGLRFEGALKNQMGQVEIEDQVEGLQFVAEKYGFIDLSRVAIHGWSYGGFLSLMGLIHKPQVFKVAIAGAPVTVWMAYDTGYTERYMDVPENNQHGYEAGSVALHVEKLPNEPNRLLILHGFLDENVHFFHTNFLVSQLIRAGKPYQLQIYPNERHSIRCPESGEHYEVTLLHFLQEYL
T2 sequence (Q6V1X1 whole entry): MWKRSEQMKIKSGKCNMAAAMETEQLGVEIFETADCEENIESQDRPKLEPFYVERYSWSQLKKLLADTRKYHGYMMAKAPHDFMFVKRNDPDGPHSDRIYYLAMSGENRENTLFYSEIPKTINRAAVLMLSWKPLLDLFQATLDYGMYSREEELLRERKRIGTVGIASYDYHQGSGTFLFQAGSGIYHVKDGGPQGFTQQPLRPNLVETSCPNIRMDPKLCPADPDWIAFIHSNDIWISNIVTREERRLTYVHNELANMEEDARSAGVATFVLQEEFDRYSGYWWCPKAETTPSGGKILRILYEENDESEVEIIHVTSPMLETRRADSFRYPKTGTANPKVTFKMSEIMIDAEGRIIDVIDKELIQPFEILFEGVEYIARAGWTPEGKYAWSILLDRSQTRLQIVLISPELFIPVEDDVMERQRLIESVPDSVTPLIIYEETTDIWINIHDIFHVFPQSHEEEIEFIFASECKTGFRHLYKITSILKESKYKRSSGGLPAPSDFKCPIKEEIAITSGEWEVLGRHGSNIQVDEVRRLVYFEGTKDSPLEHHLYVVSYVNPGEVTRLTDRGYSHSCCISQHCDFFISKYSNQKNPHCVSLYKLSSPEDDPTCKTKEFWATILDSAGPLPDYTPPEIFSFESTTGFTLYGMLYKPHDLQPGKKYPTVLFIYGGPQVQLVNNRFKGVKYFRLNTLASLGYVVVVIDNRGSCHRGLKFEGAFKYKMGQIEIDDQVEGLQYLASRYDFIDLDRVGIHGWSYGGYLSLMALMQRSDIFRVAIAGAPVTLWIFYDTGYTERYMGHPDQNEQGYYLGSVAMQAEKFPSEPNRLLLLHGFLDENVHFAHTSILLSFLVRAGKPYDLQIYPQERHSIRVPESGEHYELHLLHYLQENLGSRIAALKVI

| SMILES | solubility [1, 3] | solubility [1, 4] | solubility [1, 5] | solubility [1, 6] | IC50 (DPP-IV) | IC50 (DPP-VIII) | IC50 (DPP-IX) | half-life [2, 7] | AUC(0-t) [2, 8] | CL/F [2, 9] | Cmax [2, 10] | MRT [2, 7] | Tmax [2, 7] | Vd/F [2, 7] | F [2] | Hypoglycemic rate of blood sugar of 30 minutes after administration (normal ICR mice) | further results |
| --- | --- | --- | --- | --- | --- | --- | --- | --- | --- | --- | --- | --- | --- | --- | --- | --- | --- |
| N[C@@H](CC(=O)N1CCn2c(C(F)(F)F)nc(C(=O)[O-])c2C1)Cc1cc(F)c(F)cc1F.[Na+] [Example 4, Sodium (R)-7-[3-amino-4-(2,4,5-trifluorophenyl)butanoyl]-3-trifluoromethyl-5,6,7,8-tetrahydro-imidazo[1,5-a]pyrazine-1-carboxylate] | 94.8 mg/mL | 46.7 mg/mL | 57.4 mg/mL | 43.5 mg/mL | 0.022 µM | 77.3 µM | 42.3 µM | 2.65 ± 0.94 h | 66.6 ± 10.6 ng·h/mL | 728 mL/min/kg | 14.2 ± 2 ng/mL | 4.3 ± 0.6 h | 1.75 ± 0.96 h | 164 ± 56 L/kg | 2.90% | 9.49% |  |
| N[C@@H](CC(=O)N1CCn2c(C(F)(F)F)nc(C(=O)O)c2C1)Cc1cc(F)c(F)cc1F [Example 9, 2-Hydroxyethylammonium (R)-7-[3-amino-4-(2,4,5-trifluorophenyl)butanoyl]-3-trifluoromethyl-5,6,7,8-tetrahydro-imidazo[1,5-a]pyrazine-1-carboxylate] |  |  |  |  | 0.012 µM | 114 µM | 128 µM | 3.18 ± 0.71 h |  |  |  | 4.34 ± 0.66 h | 1.25 ± 0.5 h |  | 4.06% |  | Solubility Value, 0.1% HCl ([1]; 0.1% hydrochloric acid): 12.6 mg/mL; Solubility Value, PBS (pH 7.4) ([1]; PBS pH 7.4): 0.3 mg/mL; Solubility Value, methanol ([1]; methanol): 35.2 mg/mL; Solubility Value, water ([1]; water): 1.0 mg/mL; AUC(0-t) [2]: 93.2 ± 36.4 ng·h/mL; CL/F [2]: 548 ± 167 mL/min/kg; Cmax [2]: 25.1 ± 13.9 ng/mL; Hypoglycemic rate of blood sugar of 30 minutes after administration (normal ICR mice; 10 mg/kg): 27.56% |
| N[C@@H](CC(=O)N1CCn2c(C(F)(F)F)nc(C(=O)O)c2C1)Cc1cc(F)c(F)cc1F.O=C(O)C[C@H](O)C(=O)O [Example 11, (R)-7-[3-Amino-4-(2,4,5-trifluorophenyl)butanoyl]-3-trifluoromethyl-5,6,7,8-tetrahydro-imidazo[1,5-a]pyrazine-1-carboxylic acid (2S)-2-hydroxybutanedioic acid] | 32.6 mg/mL | 5.4 mg/mL | 19.5 mg/mL | 22.2 mg/mL | 0.009 µM | 280 µM | 180 µM | 2.21 ± 0.69 h | 69.5 ± 25.2 ng·h/mL | 777 mL/min/kg | 13.5 ± 3.9 ng/mL | 4.5 ± 1.32 h | 1.63 ± 1.11 h | 140 ± 39 L/kg | 3.03% | 20.18% |  |
| N[C@@H](CC(=O)N1CCn2c(C(F)(F)F)nc(C(=O)O)c2C1)Cc1cc(F)c(F)cc1F.O=C(O)C(O)C(O)C(=O)O [Example 12, (R)-7-[3-Amino-4-(2,4,5-trifluorophenyl)butanoyl]-3-trifluoromethyl-5,6,7,8-tetrahydro-imidazo[1,5-a]pyrazine-1-carboxylic acid (2S,3S)-2,3-dihydroxybutanedioic acid] | 33.8 mg/mL | 0.5 mg/mL | 12.3 mg/mL | 19.5 mg/mL | 0.012 µM | 244 µM | 135 µM | 2.54 ± 0.86 h | 74.6 ± 21.7 ng·h/mL | 672 mL/min/kg | 17 ± 6.9 ng/mL | 4.23 ± 0.84 h | 1.75 ± 0.5 h | 154 ± 77 L/kg | 3.25% | 24.11% |  |
